In ChEMBL document CHEMBL1201862, “PubChem BioAssay data set” (2004):
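Protocol summary: plate cells (96-well), add compound at 5 concentrations, incubate 48 h, interpolate endpoints linearly. Here, GI50 denotes the concentration required for 50% inhibition of growth.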 The source made the active and inactive calls. Rule as the data show it: active = GI50 up to about 1.1 µM and inactive = higher.

Columns and labels:
Experiment in all cases: NCI-60 cell line screen, 48 h
[1] = test system: BT-549
[2] = test system: Hs-578T
[3] = test system: DMS-273
[4] = test system: KM-20L2
[5] = test system: LXFL 529
[6] = test system: SNB-78
[7] = test system: HOP-18
[8] = test system: XF498

CC(C)c1c(P(=O)(c2ccccc2)c2ccccc2)n(C)c2ccccc12
GI50 [1]: > 100 µM (inactive) | GI50 [2]: > 100 µM (inactive)

COc1ccc(NCc2cc(OC)c(OC)c(OC)c2)cc1
GI50 [3]: 0.143 µM (active) | GI50 [4]: 0.228 µM (active) | GI50 [5]: 0.614 µM (active)

CCOc1ccc2nc(NC(=O)C(=O)C3C(=O)C(CC4C(=O)c5ccccc5C4=O)C(=O)CC3(C)C)sc2c1 (stereo unspecified)
GI50 [1]: > 100 µM (inactive) | GI50 [2]: > 100 µM (inactive)

CC(C)[Si](OC1=C(C(=O)N(C)c2ccccc2Cl)CCCCC1)(C(C)C)C(C)C
GI50 [1]: > 100 µM (inactive)

O=S(=O)(c1cccc(N=C=S)c1)c1cccc(N=C=S)c1
GI50 [3]: 18.7 µM (inactive) | GI50 [4]: 31.5 µM (inactive) | GI50 [5]: 15.2 µM (inactive) | GI50 [6]: 30.6 µM (inactive)

O=C1Oc2ccccc2C(=O)/C1=C\Nc1nc(-c2ccc(O)c(O)c2)cs1
GI50 [1]: 5.77 µM (inactive) | GI50 [2]: 15.3 µM (inactive)

Cc1ccc(S(=O)(=O)N2CCNCCN(S(=O)(=O)c3ccc(C)cc3)CCNCC2)cc1
GI50 [1]: 19.1 µM (inactive) | GI50 [2]: 17.8 µM (inactive)

OC1(c2ccccc2)CC2CCC(C1)N2CCc1ccccc1 (stereo unspecified)
GI50 [1]: 40.1 µM (inactive) | GI50 [2]: 5.27 µM (inactive)

COc1ccc2c(c1)CCc1c-2n(CCN2CCOCC2)c2ccc(OC)cc12
GI50 [1]: > 100 µM (inactive) | GI50 [2]: 61.7 µM (inactive)

CN1C2CCC1CC(=CCOC(c1ccc(F)cc1)c1ccc(F)cc1)C2
GI50 [1]: 16.3 µM (inactive) | GI50 [2]: 11.9 µM (inactive)

COc1ccc2c3c([nH]c2c1[N+](=O)[O-])C(C)N(C(=O)/C=C/c1ccccc1)CC3 (stereo unspecified)
GI50 [3]: 1.57 µM (inactive) | GI50 [4]: 4.18 µM (inactive) | GI50 [5]: 5.9 µM (inactive) | GI50 [6]: 7.05 µM (inactive)

Cc1ccc(OCC2OC(n3cnc4c(Cl)nc(Cl)nc43)CC2Oc2ccc(C)cc2)cc1 (stereo unspecified)
GI50 [1]: 2.17 µM (inactive) | GI50 [2]: 1.9 µM (inactive)

C[C@@H]1C(=O)CC2(O)[C@@]13C[C@@H](OC(=O)[C@@H]3O)[C@@H](C)[C@@]21COC1=O (stereo partly specified)
GI50 [1]: > 100 µM (inactive) | GI50 [2]: > 100 µM (inactive)

CC1=C[C@H](O)[C@@]2(C)[C@@H]([C@@H]1C)[C@H]1CC[C@@H]3[C@@]4(C)CC[C@H](O)C(C)(C)[C@@H]4CC[C@@]3(C)[C@]1(C)C[C@@H]2O
GI50 [1]: 23.9 µM (inactive) | GI50 [2]: 22.3 µM (inactive)

CCOC(=O)NC(C(=O)OCC)C(F)(F)F (stereo unspecified)
GI50 [2]: > 100 µM (inactive)

O=c1oc2ccccc2c(O)c1C(C/C(CCN1CCCC1)=N\Nc1ccccc1)c1ccccc1 (stereo unspecified)
GI50 [7]: 91.8 µM (inactive) | GI50 [4]: > 100 µM (inactive) | GI50 [5]: 84.5 µM (inactive) | GI50 [6]: > 100 µM (inactive) | GI50 [8]: > 100 µM (inactive)

c1ccc2c3nnc(c2c1)SCCSCCCSCCS3
GI50 [2]: 32.4 µM (inactive)

O=c1cc(NNc2ccc(F)cc2)[nH]c(=O)[nH]1
GI50 [1]: 13.6 µM (inactive) | GI50 [2]: 28.4 µM (inactive)

CN1CCC2(CC1)SSC1(CCN(C)CC1)S2
GI50 [1]: 23.9 µM (inactive) | GI50 [2]: > 100 µM (inactive)

CCCCCn1c(=O)c2c(=O)[nH][nH]c2c2ccccc21
GI50 [1]: > 100 µM (inactive) | GI50 [2]: > 100 µM (inactive)

O=C(Nc1ccccc1)c1cc2ccccc2c(/N=N\c2cccc([N+](=O)[O-])c2)c1O
GI50 [1]: > 100 µM (inactive) | GI50 [2]: 21.2 µM (inactive)

CCOC(=O)c1ccc(NC(=O)Oc2ccc3c(C)cc(=O)oc3c2)cc1
GI50 [1]: 17.2 µM (inactive) | GI50 [2]: 29.6 µM (inactive)

Nc1nc(CCl)nc(Nc2ccccc2)n1
GI50 [3]: 4.16 µM (inactive) | GI50 [4]: 18.6 µM (inactive) | GI50 [5]: 14.8 µM (inactive)

OCc1ccc2c(c1)CC1(C2)Cc2cc3c(cc2C1)CCC3
GI50 [1]: 2.81 µM (inactive) | GI50 [2]: 4.02 µM (inactive)

O=c1[nH]nc(-c2ccccc2)c2[nH]c3c4ccccc4ccc3c12
GI50 [2]: 1.79 µM (inactive)

O=[N+]([O-])c1ccc(C2=NN(c3ccccc3)C[N+](c3ccc(Br)cc3)=N2)cc1
GI50 [3]: > 100 µM (inactive) | GI50 [7]: > 100 µM (inactive) | GI50 [4]: > 100 µM (inactive) | GI50 [5]: 63.5 µM (inactive) | GI50 [6]: > 100 µM (inactive)

COC(=O)c1ccc(C)cc1CC1Cc2ccc(C)cc2C1=O (stereo unspecified)
GI50 [1]: 12.2 µM (inactive) | GI50 [2]: 15 µM (inactive)

Cc1ccc(/N=C2N=C(Cl)/C(=C\c3ccccc3)N\2)cc1
GI50 [1]: > 100 µM (inactive) | GI50 [2]: > 100 µM (inactive)

COC(=O)CCCC(=O)O
GI50 [1]: > 100 µM (inactive) | GI50 [2]: > 100 µM (inactive)

O=C(/C=C/c1ccccc1)N1CCCCC1
GI50 [1]: > 100 µM (inactive) | GI50 [2]: > 100 µM (inactive)

COc1cccc(N(CN2C(=O)CCC2C(=O)O)C(C)=O)c1 (stereo unspecified)
GI50 [2]: > 100 µM (inactive)

CC1(C)/C(=N\Nc2ccc([N+](=O)[O-])cc2[N+](=O)[O-])C2CCC1C2 (stereo unspecified)
GI50 [1]: > 100 µM (inactive) | GI50 [2]: 5.41 µM (inactive)

CC#CS(=O)(=O)c1ccccc1
GI50 [1]: 8.45 µM (inactive) | GI50 [2]: 17.2 µM (inactive)

COC(=O)C1=CC(=O)OC1(OO)c1ccc(Br)cc1 (stereo unspecified)
GI50 [1]: > 100 µM (inactive)

COI1NC(=O)c2ccccc21
GI50 [2]: > 100 µM (inactive)

O=c1oc2ccc(Cl)cc2cc1-c1cn2ccsc2n1
GI50 [1]: 24.1 µM (inactive) | GI50 [2]: 76.4 µM (inactive)

OCCN(CCO)c1nc(N2CCCCC2)c2nc(N(CCO)CCO)nc(N3CCCCC3)c2n1 [DIPYRIDAMOLE]
GI50 [2]: 31.8 µM (inactive)

NC1=C(NC(=O)Cc2ccccc2F)C(=O)c2ccccc2C1=O
GI50 [3]: 97.7 µM (inactive) | GI50 [7]: > 100 µM (inactive) | GI50 [4]: 40.7 µM (inactive)

CCOc1c2c(cc3c1C(=O)c1c(OC)cccc1C3=O)C=C(OC)CC2
GI50 [2]: > 25 µM (inactive)

OC(CN1CCCCC1)c1ccc(/C=C/c2ccc(Cl)cc2)cc1 (stereo unspecified)
GI50 [1]: > 100 µM (inactive) | GI50 [2]: 50.1 µM (inactive)

COC(=O)C1(CCC(C)=O)CCCCCC1=O (stereo unspecified)
GI50 [1]: > 100 µM (inactive)

Cn1c(NC(=O)NC23CC4CC(CC(C4)C2)C3)nc2ccccc21
GI50 [3]: 26.5 µM (inactive) | GI50 [7]: 19.2 µM (inactive) | GI50 [4]: > 100 µM (inactive) | GI50 [5]: 86.1 µM (inactive) | GI50 [6]: 23.8 µM (inactive)

OC1c2ccccc2[C@@H]2[C@H]1[C@@H](c1ccccc1)C1(Cc3ccccc3C1O)[C@H]2c1ccccc1 (stereo partly specified)
GI50 [1]: 14.7 µM (inactive) | GI50 [2]: 6.93 µM (inactive)

OCCN(C1=NCCN1)/[N+](=C/c1ccccc1O)[CH-]c1ccccc1O
GI50 [1]: 37.8 µM (inactive) | GI50 [2]: > 100 µM (inactive)

CCc1n[nH]c(=O)n1/N=C/c1ccc(/C=N/n2c(CC)n[nH]c2=O)cc1
GI50 [1]: > 100 µM (inactive) | GI50 [2]: > 100 µM (inactive)

CCOC(=O)/C(C#N)=C/c1ccc(SCc2ccco2)c([N+](=O)[O-])c1
GI50 [1]: > 100 µM (inactive) | GI50 [2]: > 100 µM (inactive)

Nc1nc(SCCc2ccccc2)c2nc[nH]c2n1
GI50 [1]: 47.3 µM (inactive) | GI50 [2]: 64 µM (inactive)

CCCCCCCCCCCCCCCCCCNC(=O)C(N)Cc1ccc(OCc2ccccc2)cn1 (stereo unspecified)
GI50 [1]: 23.4 µM (inactive) | GI50 [2]: 21.6 µM (inactive)

CC(C)=NNc1snnc1C(N)=O
GI50 [1]: > 100 µM (inactive) | GI50 [2]: > 100 µM (inactive)

COc1cc([C@@H]2c3cc4c(cc3[C@H](OC3OC5COC(c6ccco6)OC5C(O)C3O)C3COC(=O)[C@@H]32)OCO4)cc(OC)c1OC (stereo partly specified)
GI50 [1]: 3.21 µM (inactive) | GI50 [2]: 5.01 µM (inactive)

O=[N+]([O-])c1ccccc1S(=O)(=O)c1cccc2c1NCCC2
GI50 [1]: 32.1 µM (inactive) | GI50 [2]: 51.1 µM (inactive)

O=C(O)C(O)(c1ccc(-c2ccccc2)cc1)c1ccc(-c2ccccc2)cc1
GI50 [1]: 20.5 µM (inactive)

Cc1cc(O)c(C=O)c2c1C(=O)Oc1c(CO)c(O)c3c(c1O2)C(O)OC3=O (stereo unspecified) [SLAZINIC ACID]
GI50 [1]: > 100 µM (inactive) | GI50 [2]: 31.6 µM (inactive)

COc1cc(Nc2cnc3cc(N)ccc3n2)cc(OC)c1OC
GI50 [3]: 11.7 µM (inactive) | GI50 [7]: 51.3 µM (inactive) | GI50 [4]: > 100 µM (inactive) | GI50 [5]: 82.4 µM (inactive) | GI50 [8]: 81.5 µM (inactive)
